{"source": "patent US20070287699A1", "about": "“ANTIVIRAL AGENTS” (ViroBay, Inc., priority 2006, published 2007)", "tested_on": "HCV replicon RNA replication in human Huh7 hepatoma cells", "assay": "HCV replicon assay (activity levels from either or both of HCV replicon assay 1, Huh7/Clone A RT-qPCR, and assay 2, Huh7 ET luc-ubi-neo/ET)", "assay_type": "cell-based, Hepatitis C virus (HCV)", "conditions": "Hepatitis C virus, Huh-7, either or both HCV replicon assays: Huh7/Clone A, 48 hours, 72 hours, Luc activity or RT-PCR, read-out: inhibit HCV replication at IC50 levels or estimated IC50 levels", "procedure,_shortened": "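Huh7/Clone A subgenomic replicon cells treated 48 h at 37° C. with 7 serial dilutions in triplicate (0.5% DMSO final). Replicon RNA measured by TaqMan RT-qPCR on the neo gene, normalized to RiboGreen total RNA; untreated cells set as 100% for IC50.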"}
{"smiles": "O=c1c(-c2noc(Cc3ccccc3)n2)cn(Cc2ccc(C(F)(F)F)cc2)c2cc(N3CCCNCC3)c(F)cc12", "note": "[Compound 71, 3-(5-benzyl-[1,2,4]oxadiazol-3-yl)-7-[1,4]diazepam-1-yl-6-fluoro-1-(4-trifluoromethyl-benzyl)-1H-quinolin-4-one]", "values": [{"measurement": "IC50", "result": "< 0.5", "unit": "µM"}]}
{"smiles": "CC1CN(c2cc3c(cc2F)c(=O)c(-c2noc(C(C)(C)c4ccccc4)n2)cn3Cc2ccc(C(F)(F)F)cc2)CC(C)O1", "note": "(stereo not drawn) [Compound 138, 7-(2,6-dimethylmorpholino)-6-fluoro-3-(5-(2-phenylpropan-2-yl)-1,2,4-oxadiazol-3-yl)-1-(4-(trifluoromethyl)benzyl)quinolin-4(1H)-one]", "values": [{"measurement": "IC50", "result": "< 2", "unit": "µM"}]}
{"smiles": "NC(=O)CNc1cc2c(cc1F)c(=O)c(-c1noc(Cc3ccccc3)n1)cn2Cc1ccc(C(F)(F)F)cc1F", "note": "[Compound 69, 2-[3-(5-benzyl-[1,2,4]oxadiazol-3-yl)-6-fluoro-1-(2-fluoro-4-trifluoromethyl-benzyl)-4-oxo-1,4-dihydro-quinolin-7-ylamino]-acetamide]", "values": [{"measurement": "IC50", "result": "< 10", "unit": "µM"}]}
{"smiles": "O=c1c(-c2noc(Cc3ccccc3)n2)cn(Cc2ccc(C(F)(F)F)cc2)c2cc(N(CCO)CCO)c(F)cc12", "note": "[Compound 83, 3-(5-benzyl-[1,2,4]oxadiazol-3-yl)-7-[bis-(2-hydroxy-ethyl)-amino]-6-fluoro-1-(4-trifluoromethyl-benzyl)-1H-quinolin-4-one]", "values": [{"measurement": "IC50", "result": "< 10", "unit": "µM"}]}
{"smiles": "O=c1c(-c2noc(Cc3ccccc3)n2)cn(CC2CCCCC2)c2ccc(O)cc12", "note": "[Compound 24, 3-(5-benzyl-[1,2,4]oxadiazol-3-yl)-1-cyclohexylmethyl-6-hydroxy-1H-quinolin-4-one]", "values": [{"measurement": "IC50", "result": "> 10", "unit": "µM"}]}
{"smiles": "CN(C)c1cc2c(cc1F)c(=O)c(-c1noc(C(C)(C)c3ccccc3)n1)cn2Cc1ccc(F)cc1", "note": "[Compound 154, 7-(dimethylamino)-6-fluoro-1-(4-fluorobenzyl)-3-(5-(2-phenylpropan-2-yl)-1,2,4-oxadiazol-3-yl)quinolin-4(1H)-one]", "values": [{"measurement": "IC50", "result": "< 2", "unit": "µM"}]}
{"smiles": "COc1cc2c(=O)c(-c3noc(C4(c5ccccc5)CC4)n3)cn(Cc3ccc(Cl)cc3)c2cc1OC", "note": "[Compound 2, 1-(4-chloro-benzyl)-6,7-dimethoxy-3-[5-(1-phenyl-cyclopropyl)-[1,2,4]oxadiazol-3-yl]-1H-quinolin-4-one]", "values": [{"measurement": "IC50", "result": "> 10", "unit": "µM"}]}
{"smiles": "COc1cc2c(=O)c(-c3nc(Cc4ccccc4)no3)cn(Cc3ccc(Cl)cc3)c2cc1OC", "note": "[Compound 169, 3-(3-benzyl-[1,2,4]oxadiazol-5-yl)-1-(4-chloro-benzyl)-6,7-dimethoxy-1H-quinolin-4-one]", "values": [{"measurement": "IC50", "result": "> 10", "unit": "µM"}]}
{"smiles": "CN1CCN(c2cc3c(cc2F)c(=O)c(-c2noc(C(C)(C)c4ccccc4)n2)cn3Cc2cccc(C(F)(F)F)c2)CC1", "note": "[Compound 98, 6-fluoro-3-[5-(1-methyl-1-phenyl-ethyl)-[1,2,4]oxadiazol-3-yl]-7-(4-methyl-piperazin-1-yl)-1-(3-trifluoromethyl-benzyl)-1H-quinolin-4-one]", "values": [{"measurement": "IC50", "result": "< 0.5", "unit": "µM"}]}
{"smiles": "NC(=O)CCCC(c1ccccc1)c1nc(-c2cn(Cc3ccc(C(F)(F)F)cc3F)c3ccccc3c2=O)no1", "note": "(stereo not drawn) [Compound 99, 5-{3-[1-(2-fluoro-4-trifluoromethyl-benzyl)-4-oxo-1,4-dihydro-quinolin-3-yl]-[1,2,4]oxadiazol-5-yl}-5-phenyl-pentanoic acid amide]", "values": [{"measurement": "IC50", "result": "> 10", "unit": "µM"}]}
{"smiles": "CN1CCN(c2cc3c(cc2F)c(=O)c(-c2noc(Cc4ccc(F)cc4)n2)cn3Cc2c(F)cccc2F)CC1", "note": "[Compound 49, 1-(2,6-difluoro-benzyl)-6-fluoro-3-[5-(4-fluoro-benzyl)-[1,2,4]oxadiazol-3-yl]-7-(4-methyl-piperazin-1-yl)-1H-quinolin-4-one]", "values": [{"measurement": "IC50", "result": "< 10", "unit": "µM"}]}
{"smiles": "CN1CCCN(c2nc3c(cc2F)c(=O)c(-c2noc(C(C)(C)c4ccccc4)n2)cn3Cc2ccc(C(F)(F)F)cc2)CC1", "note": "[Compound 103, 6-fluoro-7-(4-methyl-[1,4]diazepan-1-yl)-3-[5-(1-methyl-1-phenyl-ethyl)-[1,2,4]oxadiazol-3-yl]-1-(4-trifluoromethyl-benzyl)-1H-[1,8]naphthyridin-4-one]", "values": [{"measurement": "IC50", "result": "< 2", "unit": "µM"}]}
